According to US20020192178A1, “Leguminous extract heavy-metal-scavenging anti-pollution agent” (L'OREAL, priority 2001, published 2002):

System: immortalized human keratinocytes (DK7-NR)
Assay: Protective effect against cadmium cytotoxicity, Neutral Red incorporation test
Assay type: cell-based
Settings: cadmium chloride alone, 0% extract of maize, 24 hours; read-out: IC50 (concentration of CdCl2 inducing a 50% decrease in viability)
Procedure: Heavy metals such as cadmium, nickel, lead, mercury, etc. can cause cytotoxicity on the cells of various organs including the skin. The cytotoxic effect of cadmium on human keratinocytes in culture was evaluated by a technique for measuring the cell viability: the Neutral Red incorporation test (Culture Methods. 1984, 9, 7-9).
The study was performed on a monolayer culture of immortalized human keratinocytes (DK7-NR) by the Nestle research center. The cells are inoculated on D-3 in 96-well culture dishes at a rate of 25 000 cells/cm^2 in 100 µl of culture medium (medium defined without calf serum, NR2, Biofluids). The incubations are performed in an incubator at 37° C. in humid atmosphere enriched with 5% CO2.
The cells are treated [lacuna] 24 hours with increasing concentrations (0, 10, 25, 50, 75, 100, 150 and 200 μM) of cadmium chloride (CdC12) alone, so as to determine its cytotoxicity. In parallel, a treatment is performed under the same conditions, but in the presence of the extract of maize (Phytovityl® at 0.5% and 1%, non-cytotoxic concentrations for the cells). The incubations are performed in an incubator at 37° C., 5% CO2 in a humid atmosphere.
At the end of the contact period, the cell viability is determined by means of a Neutral Red (POS 55/006) incorporation test, with spectrophotometric reading at 500 nm. […]

## [Cl][Cd][Cl] [cadmium chloride]
  IC50: 37.7 µM
